Reference: ChEMBL document CHEMBL1201862, “PubChem BioAssay data set” (2004)
The source made the active and inactive calls. Rule as the data show it, for most assays here: actives have a measured EC50 and inactives only a lower limit.

Assays:
[1] = target: T1, Corticotropin-releasing factor receptor 2/Corticotropin-releasing factor-binding protein (Homo sapiens, UniProt P24387+Q13324); assay: Dose Response confirmation of uHTS hits for small molecule antagonists of the CRF-binding protein and CRF-R2 receptor complex.; assay type: functional; conditions: read-out: IC50_Mean
T1 sequence (Q13324 whole entry): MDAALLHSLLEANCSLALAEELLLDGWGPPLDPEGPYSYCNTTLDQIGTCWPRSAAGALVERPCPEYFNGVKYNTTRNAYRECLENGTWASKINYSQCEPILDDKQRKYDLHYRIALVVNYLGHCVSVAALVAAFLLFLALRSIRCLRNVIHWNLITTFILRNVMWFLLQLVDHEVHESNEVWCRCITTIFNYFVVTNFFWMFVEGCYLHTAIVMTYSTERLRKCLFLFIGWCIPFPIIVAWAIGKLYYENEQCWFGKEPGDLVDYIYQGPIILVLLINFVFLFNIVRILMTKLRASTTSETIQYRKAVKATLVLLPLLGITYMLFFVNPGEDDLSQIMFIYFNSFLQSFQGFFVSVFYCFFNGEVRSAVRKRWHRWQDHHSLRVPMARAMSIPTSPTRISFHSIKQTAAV
T1 sequence (P24387 whole entry): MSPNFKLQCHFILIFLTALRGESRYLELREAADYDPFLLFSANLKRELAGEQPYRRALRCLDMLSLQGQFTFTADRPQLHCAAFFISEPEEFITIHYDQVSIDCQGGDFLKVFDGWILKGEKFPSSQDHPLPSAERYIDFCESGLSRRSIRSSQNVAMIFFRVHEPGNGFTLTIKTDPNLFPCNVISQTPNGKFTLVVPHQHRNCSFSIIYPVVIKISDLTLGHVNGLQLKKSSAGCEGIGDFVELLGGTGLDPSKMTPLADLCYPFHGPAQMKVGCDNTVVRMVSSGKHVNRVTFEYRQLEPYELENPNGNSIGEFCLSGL

[2] = target: T1, Corticotropin-releasing factor receptor 2/Corticotropin-releasing factor-binding protein; assay: activators of CRF receptor 2 with binding protein – uHTS hits, confirmation (AID 602473); assay type: functional; conditions: read-out: EC50_Mean
[3] = target: T2, Heat shock factor protein 1 (Mus musculus, UniProt P38532); assay: HSF1 potentiators in luciferase reporter cells, confirmation, cell-based, NIH3T3, luminescence, dose retest (AID 435004); assay type: functional;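 also: stress induced by proteasome inhibitor MG132 added 30 min after compound; luciferase reporter driven by HSF1 response element in NIH3T3 cells; actives raise luminescence as potentiators of the MG132 stress response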
T2 sequence (P38532 whole entry): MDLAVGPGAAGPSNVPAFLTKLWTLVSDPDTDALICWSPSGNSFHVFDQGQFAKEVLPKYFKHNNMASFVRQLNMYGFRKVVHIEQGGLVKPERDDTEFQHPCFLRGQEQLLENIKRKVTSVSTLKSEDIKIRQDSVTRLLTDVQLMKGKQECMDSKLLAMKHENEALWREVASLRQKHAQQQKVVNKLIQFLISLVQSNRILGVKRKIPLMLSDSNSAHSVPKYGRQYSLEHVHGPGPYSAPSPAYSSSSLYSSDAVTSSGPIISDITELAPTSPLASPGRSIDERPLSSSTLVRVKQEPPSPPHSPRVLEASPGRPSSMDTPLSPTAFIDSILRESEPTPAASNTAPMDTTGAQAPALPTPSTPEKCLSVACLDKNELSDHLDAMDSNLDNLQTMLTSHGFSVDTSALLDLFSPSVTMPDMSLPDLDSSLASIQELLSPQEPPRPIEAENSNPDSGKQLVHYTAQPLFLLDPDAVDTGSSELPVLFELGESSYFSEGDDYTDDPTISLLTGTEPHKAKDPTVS

[4] = target: T3, Replicative DNA helicase DnaB (Mycobacterium tuberculosis, UniProt P9WMR3); assay: DnaB intein splicing inhibitors, dose response, biochemical, cell-free fluorescence (AID 449749); assay type: functional
T3 sequence (P9WMR3 whole entry): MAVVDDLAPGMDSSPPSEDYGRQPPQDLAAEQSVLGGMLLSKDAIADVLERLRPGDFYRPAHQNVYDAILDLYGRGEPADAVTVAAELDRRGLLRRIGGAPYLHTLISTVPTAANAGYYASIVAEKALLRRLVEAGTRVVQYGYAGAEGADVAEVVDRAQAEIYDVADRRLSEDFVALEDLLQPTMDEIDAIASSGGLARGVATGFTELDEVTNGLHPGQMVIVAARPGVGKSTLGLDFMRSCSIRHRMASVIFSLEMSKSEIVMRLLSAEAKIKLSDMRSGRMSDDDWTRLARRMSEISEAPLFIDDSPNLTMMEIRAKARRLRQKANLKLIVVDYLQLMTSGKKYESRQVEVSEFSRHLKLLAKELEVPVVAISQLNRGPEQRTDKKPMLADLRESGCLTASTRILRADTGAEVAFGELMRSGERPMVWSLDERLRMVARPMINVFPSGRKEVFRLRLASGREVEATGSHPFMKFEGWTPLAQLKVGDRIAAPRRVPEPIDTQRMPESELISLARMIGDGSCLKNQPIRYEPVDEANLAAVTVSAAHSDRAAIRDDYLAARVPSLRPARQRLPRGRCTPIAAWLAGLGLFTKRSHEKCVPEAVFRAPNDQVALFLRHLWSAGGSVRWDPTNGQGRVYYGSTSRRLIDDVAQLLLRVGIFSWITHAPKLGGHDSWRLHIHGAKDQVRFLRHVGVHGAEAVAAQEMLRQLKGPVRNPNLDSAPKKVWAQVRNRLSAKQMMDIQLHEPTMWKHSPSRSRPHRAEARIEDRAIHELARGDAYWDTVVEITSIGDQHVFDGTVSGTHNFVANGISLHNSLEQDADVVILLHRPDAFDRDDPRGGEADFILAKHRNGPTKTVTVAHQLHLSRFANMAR

Protein RecA = target: T4, Protein RecA (Mycobacterium tuberculosis, UniProt P9WHJ3); assay: Fluorescence Cell-Free Homogeneous Dose Retest to Identify Inhibitors of RecA-Intein Splicing Activity. [Related pubchem assays (depositor defined):AID2097, AID2223, AID489010, AID492950]; assay type: functional
T4 sequence (P9WHJ3 whole entry): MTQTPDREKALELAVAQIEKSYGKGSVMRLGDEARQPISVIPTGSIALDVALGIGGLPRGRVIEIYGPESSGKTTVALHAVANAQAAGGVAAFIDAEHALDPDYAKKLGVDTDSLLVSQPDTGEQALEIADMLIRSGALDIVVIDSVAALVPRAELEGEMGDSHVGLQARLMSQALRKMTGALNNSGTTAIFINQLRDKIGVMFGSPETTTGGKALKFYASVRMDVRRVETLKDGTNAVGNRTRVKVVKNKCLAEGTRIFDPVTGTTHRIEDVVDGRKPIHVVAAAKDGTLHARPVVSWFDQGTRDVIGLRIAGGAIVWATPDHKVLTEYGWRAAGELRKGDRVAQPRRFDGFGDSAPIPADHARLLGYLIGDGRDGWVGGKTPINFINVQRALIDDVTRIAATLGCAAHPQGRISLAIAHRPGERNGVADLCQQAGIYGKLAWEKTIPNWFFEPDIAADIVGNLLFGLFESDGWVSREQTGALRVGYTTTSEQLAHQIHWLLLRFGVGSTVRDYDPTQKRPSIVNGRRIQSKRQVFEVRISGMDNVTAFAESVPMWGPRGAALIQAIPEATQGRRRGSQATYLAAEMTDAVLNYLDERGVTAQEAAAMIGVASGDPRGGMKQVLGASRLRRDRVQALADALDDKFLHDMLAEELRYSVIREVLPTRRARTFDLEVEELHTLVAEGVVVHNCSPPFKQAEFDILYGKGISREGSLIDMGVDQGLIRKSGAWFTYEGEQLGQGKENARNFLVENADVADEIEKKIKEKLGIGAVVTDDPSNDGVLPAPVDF

[5] = target: Induced myeloid leukemia cell differentiation protein Mcl-1 (Homo sapiens, UniProt Q07820); assay type: functional
BJ [6] = assay: cytotoxicity toward BJ-TERT fibroblasts, dose response, cell-based, RAS-independent, luminescence (AID 1933); assay type: functional; conditions: Homo sapiens
BJ [7] = assay: cells; assay type: functional, cell-based; conditions: Homo sapiens
BJ [8] = assay: cytotoxicity toward BJ-TERT-LT-ST fibroblasts, dose response, cell-based, RAS-independent, luminescence (AID 1935); assay type: functional; conditions: Homo sapiens;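 also: BJ fibroblasts immortalized with TERT plus LT and ST oncogenes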
[9] = cytotoxicity toward DRD oncogenic fibroblasts, dose response, cell-based, non-viral oncogenic, luminescence (AID 1934); assay type: functional; conditions: Homo sapiens
[10] = NIH-3T3 fibroblast cytotoxicity, dose response, cytotoxicity control, cell-based, fluorescence, Alamar Blue, secondary assay (AID 2327); assay type: functional;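 also: NIH-3T3 mouse fibroblasts cultured with fluconazole at 8 µg/mL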
[11] = C. albicans growth with fluconazole, confirmation, fluorescence, retest (AID 2467); assay type: functional, cell-based
Genome polyprotein = Genome polyprotein (dengue virus type 2, UniProt P29990); assay: Dengue-2 NS5 methyltransferase inhibitors, primary screen, biochemical, confirmation dose response (AID 588689); assay type: functional
[12] = P. falciparum Dd2 growth inhibitors, dose response, SYBR Green, cherry-picked samples (AID 1159567); assay type: functional, cell-based

Induced myeloid leukemia cell differentiation protein Mcl-1, sequence (Q07820 whole entry): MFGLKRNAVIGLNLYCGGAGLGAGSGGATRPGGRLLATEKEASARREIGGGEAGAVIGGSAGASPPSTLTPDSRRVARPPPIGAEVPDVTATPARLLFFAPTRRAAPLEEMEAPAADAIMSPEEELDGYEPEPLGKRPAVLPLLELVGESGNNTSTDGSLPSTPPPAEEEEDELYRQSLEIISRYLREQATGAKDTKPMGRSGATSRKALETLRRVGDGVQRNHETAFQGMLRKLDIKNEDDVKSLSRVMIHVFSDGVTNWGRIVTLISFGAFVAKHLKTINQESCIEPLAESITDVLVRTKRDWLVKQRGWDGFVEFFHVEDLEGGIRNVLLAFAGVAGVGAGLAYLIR
Genome polyprotein, sequence (P29990 2492-3391 limits assumed): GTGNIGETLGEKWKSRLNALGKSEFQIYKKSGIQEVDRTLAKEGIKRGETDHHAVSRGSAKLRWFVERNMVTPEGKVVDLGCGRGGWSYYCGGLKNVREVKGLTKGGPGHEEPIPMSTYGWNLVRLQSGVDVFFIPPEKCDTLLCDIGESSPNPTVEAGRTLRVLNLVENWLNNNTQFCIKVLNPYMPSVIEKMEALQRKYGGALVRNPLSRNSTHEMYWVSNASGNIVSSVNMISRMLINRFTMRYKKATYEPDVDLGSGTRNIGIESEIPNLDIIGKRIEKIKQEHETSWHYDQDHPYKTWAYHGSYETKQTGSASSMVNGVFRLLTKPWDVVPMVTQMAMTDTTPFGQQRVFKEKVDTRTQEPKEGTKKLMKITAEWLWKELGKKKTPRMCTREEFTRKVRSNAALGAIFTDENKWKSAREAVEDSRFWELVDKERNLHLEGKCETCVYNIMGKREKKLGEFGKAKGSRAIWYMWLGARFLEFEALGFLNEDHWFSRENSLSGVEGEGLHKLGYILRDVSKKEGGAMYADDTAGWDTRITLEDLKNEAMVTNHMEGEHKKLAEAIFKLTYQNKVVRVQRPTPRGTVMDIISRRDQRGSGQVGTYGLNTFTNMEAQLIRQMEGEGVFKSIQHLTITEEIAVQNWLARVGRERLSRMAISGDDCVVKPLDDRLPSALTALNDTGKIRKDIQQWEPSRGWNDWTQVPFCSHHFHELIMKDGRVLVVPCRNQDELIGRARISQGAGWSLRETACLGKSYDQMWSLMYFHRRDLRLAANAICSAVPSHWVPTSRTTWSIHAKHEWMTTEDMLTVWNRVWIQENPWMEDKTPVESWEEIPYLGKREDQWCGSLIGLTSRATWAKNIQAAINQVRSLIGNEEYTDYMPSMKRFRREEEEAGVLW

Structure (SMILES): C=C(C)C(=O)Oc1ccc(N2C(=O)[C@@H]3C4C=CC(C4)[C@@H]3C2=O)cc1
- IC50 [1]: > 47.1 µM (inactive)
- EC50 [2]: > 53 µM (inactive)

Structure (SMILES): COc1ccc(N2C(=O)C(Cl)=C(Oc3cccc(OC)c3)C2=O)cc1
- EC50 [3]: 1.84 µM (active)
- AC50 [4]: 18.9 µM (active)
- EC50 (Protein RecA): 10.7 µM (active)

Structure (SMILES): CCN(c1ccc(NC(=O)COC(=O)c2cc3ccccc3oc2=O)cc1)C(C)C
- IC50 [5]: 25.3 µM (not active)

Structure (SMILES): c1ccc(-c2cnnc(SCc3cn4cccnc4n3)n2)cc1
- EC50 (BJ [6]): > 150 µM (not active)
- EC50 (BJ [7]): > 150 µM (inconclusive)
- EC50 (BJ [8]): > 150 µM (inconclusive)
- EC50 [9]: 24.9 µM (active)

Structure (SMILES): Cc1noc(C)c1COC(=O)c1ccccc1Oc1ccccc1
- EC50 [3]: > 260 µM (inactive)

Structure (SMILES): COc1ccc(C(CC(=O)c2ccc(C)cc2)C(C#N)C#N)cc1OC (stereo unspecified)
- EC50 [3]: 5.54 µM (active)
- AC50 [4]: 11.4 µM (active)
- EC50 (Protein RecA): 4.79 µM (active)

Structure (SMILES): CC(C)c1cc(N2CCC(=O)NC2=O)cc(C(=O)O)c1O
- IC50 [1]: > 47.1 µM (inactive)
- EC50 [2]: > 53 µM (inactive)

Structure (SMILES): Cc1ccc2nc(NCc3ccccc3)c(C=O)c(=O)n2c1
- EC50 [3]: > 260 µM (inactive)

Structure (SMILES): CCCc1nc2ccc(NC(=O)c3cccs3)cc2c(=O)n1Cc1ccccc1Cl
- EC50 [3]: > 260 µM (inactive)

Structure (SMILES): CC1CCCCN1C(C(=O)O)c1ccccc1 (stereo unspecified)
- IC50 [1]: > 47.1 µM (inactive)
- EC50 [2]: > 53 µM (inactive)

Structure (SMILES): CCOc1ccc(N2CC(C(=O)NCc3nnnn3-c3ccc(C)c(C)c3)CC2=O)cc1 (stereo unspecified)
- IC50 [1]: > 47.1 µM (inactive)
- EC50 [2]: > 53 µM (inactive)

Structure (SMILES): CCC(C)NS(=O)(=O)c1ccc(OCC(=O)NCc2ccccn2)cc1 (stereo unspecified)
- IC50 [1]: > 47.1 µM (inactive)
- EC50 [2]: > 53 µM (inactive)

Structure (SMILES): CC1CCN(c2ccc(NC(=O)Cc3ccccc3)cc2)CC1
- IC50 [5]: 5.35 µM (not active)

Structure (SMILES): O=C(CCN1C(=O)/C(=C/c2ccc(Cl)cc2)SC1=S)Nc1cccnc1
- EC50 (BJ [6]): 14.9 µM (active)
- EC50 (BJ [7]): > 150 µM (not active)
- EC50 (BJ [8]): > 150 µM (not active)
- EC50 [9]: 24.7 µM (active)

Structure (SMILES): Nc1ccc2c(c1Cl)C(=O)c1ccc(N)c(Cl)c1C2=O
- IC50 [5]: 2.76 µM (active)

Structure (SMILES): CC(C)c1ccc2c(c1)[C@H]1OCC[C@H]1[C@@H](c1cccs1)N2
- EC50 [3]: > 260 µM (inactive)

Structure (SMILES): COc1ccc(OC)c(N(CC(=O)N2CCC(C)CC2)S(=O)(=O)c2ccccc2)c1
- EC50 [3]: > 260 µM (inactive)

Structure (SMILES): O=C(CSc1nnc(-c2ccco2)n1Cc1ccccc1)OC1CCCCC1
- EC50 [10]: > 150 µM (inactive)
- EC50 [11]: > 38 µM (not active)
- EC50 [3]: 35.8 µM (active)

Structure (SMILES): Cc1c(-c2nnc(S)n2-c2ccc(C(F)(F)F)cc2)nnn1-c1ccccc1
- EC50 [3]: > 260 µM (inactive)

Structure (SMILES): COc1cc(C(=O)NCCc2ccc(F)cc2)ccc1OCC(=O)N1CCOCC1
- EC50 [3]: > 260 µM (inactive)

Structure (SMILES): CC(C)c1ccc(N(C(=O)CNC(=O)c2ccco2)C(C(=O)NC2CCCC2)c2ccncc2)cc1 (stereo unspecified)
- EC50 [3]: > 260 µM (inactive)

Structure (SMILES): Cc1ccc(NS(=O)(=O)c2ccc(C(=O)Nc3nncs3)cc2)cc1
- IC50 [1]: > 47.1 µM (inactive)
- EC50 [2]: > 53 µM (inactive)

Structure (SMILES): COC1=CC(=O)C(O)=C(CCCCCCC/C=C/CCCCCCCC2=C(O)C(=O)C=C(OC)C2=O)C1=O
- EC50 [10]: > 160 µM (inactive)
- EC50 [11]: > 38 µM (not active)
- AC50 [4]: 2.6 µM (active)
- EC50 (Protein RecA): 2.13 µM (active)
- IC50 (Genome polyprotein): 10.8 µM (active)

Structure (SMILES): COc1ccccc1CNC(=O)CCc1nnc2ccc(NCCCN3CCCC3=O)nn12
- IC50 [1]: > 47.1 µM (inactive)
- EC50 [2]: > 53 µM (inactive)

Structure (SMILES): O=C(Cc1ccccn1)N1CCCCN2[C@@H](CO)[C@@H](c3ccc(C#Cc4ccccc4)cc3)[C@@H]2C1
- AC50 [12]: 4.71 µM (active)

Structure (SMILES): COc1ccc2c3c(n(C)c2c1)[C@@H](CO)N(C(=O)c1ccc(F)cc1)CC31CN(CC2CCOCC2)C1
- AC50 [12]: 12.1 µM (active)

Structure (SMILES): CO[C@@H]1CN(C)C(=O)c2cc(NC(=O)Cc3ccccc3)ccc2OC[C@H](C)N(C(=O)c2ccccc2F)C[C@@H]1C
- AC50 [12]: 7.66 µM (active)

Structure (SMILES): COc1ccc(C#Cc2ccc3c(c2)[C@H]2[C@H](CCN2C(=O)c2ccccn2)[C@@H](CO)N3)cc1
- AC50 [12]: 3.75 µM (active)
